# Test results as given in patent US20250353873A1, “COMPOUNDS AND METHODS FOR MODULATING APOE EXPRESSION” (Ionis Pharmaceuticals, Inc., priority 2024, published 2025).
# Several values for one entry are separate records, joined by “and”; a condition that tells them apart may be missing. Identical values can stand only once. e = 2'-O-(2-methoxyethyl) (MOE); k = constrained ethyl (cEt); d = 2'-deoxy (DNA)
# How the values were obtained:
# human APOE RNA [1] = test: Activity in APOE C57BL/6NTac-Apoeem7250 knock-in mice, single ICV bolus, 8 weeks (Example 11); type: in vivo
# How it was run: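 Human APOE knock-in C57BL/6NTac mice given one ICV bolus of 300 μg oligonucleotide; PBS-dosed group as control. At 8 weeks, cortex and spinal cord RNA measured by qRT-PCR (human probe RTS3073), normalized to mouse Ppia, expressed as % of PBS control.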
# human APOE RNA [2] = test: Activity in APOE 1549 knock-in mice, single ICV bolus, 2 weeks (Example 7); type: in vivo; conditions: single ICV bolus of 300 μg, two weeks post treatment, Table 16
# How it was run: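 Human APOE knock-in mice (model 41549), 2 per group, given a single 300 µg ICV bolus of oligonucleotide, with PBS as control. After 2 weeks, APOE RNA in cortex and spinal cord measured by RT-qPCR, normalized to mouse Ppia, and expressed as % of PBS control.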
# BJAB cells [3] = test system: BJAB cells
# Description: Human APOE modified oligonucleotides were tested for potential immunostimulatory properties in an in vitro human BJAB activation assay.
# Human Burkitt lymphoma B cells, BJAB cells (DSMZ, Cat #ACC 757) were cultured in RPMI1640 medium containing 20% fetal bovine serum at 37° C. and 5% CO2. Cells were maintained at a density of 0.5-0.7×10^6 cells per milliliter. Cells were transferred to 50 mL conical Falcon tubes and centrifuged at 330 RCF for 5 minutes before being resuspended at a concentration of 7.5×10^4 cells per milliliter in RPMI culture medium containing penicillin and streptomycin. 50 μL of the cell suspension was added to a v-bottom tissue culture treated 96-well microplate. 11 μl of 10× concentrated modified oligonucleotides was then added to the plate for a final concentration of 1.6 μM and incubated for 24 hours at 37° C. and 5% CO2.
# After a treatment period of 24 hours, total RNA was isolated from the cells and CCL22 RNA levels were measured by quantitative real-time RT-PCR. CCL22 RNA levels were measured by human primer-probe set RTS49260 (forward sequence [sequence], designated herein as SEQ ID NO: 19; reverse sequence [sequence], designated herein as SEQ ID NO: 20; probe sequence [sequence], designated herein as SEQ ID NO: 21). CCL22 RNA levels were normalized to total RNA content, as measured by GAPDH. Human GAPDH was measured using the human primer-probe set RTS104 (forward sequence [sequence], designated herein as SEQ ID NO: 10; reverse sequence [sequence], designated herein as SEQ ID NO: 11; probe sequence [sequence], designated herein as SEQ ID NO: 12). Levels of CCL22 RNA is presented log fold increase of CCL22, relative to untreated control cells (UTC). The assignment of the immunostimulatory properties of the test compounds is based on the immunostimulatory properties of the internal control compounds in each assay.
# human APOE RNA [4] = test: Activity in APOE C57BL/6NTac-Apoeem7250 knock-in mice, single ICV bolus, 20 weeks (Example 13); type: in vivo; conditions: single ICV bolus 300 μg, 20 weeks post treatment, normalized to mouse Ppia
# How it was run: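 Knock-in mice (n=4) given a single ICV bolus of 300 μg oligonucleotide, PBS as control. After 20 weeks, human APOE RNA in cortex and spinal cord measured by RT-qPCR, normalized to mouse Ppia, expressed as % of PBS-treated animals.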
# human APOE RNA [5] = test: Dose-dependent inhibition of human APOE RNA in HepG2 cells, electroporation, 50,000 cells per well, RT-PCR normalized to GAPDH (Example 4, Tables 8-10); type: cell-based; conditions: HepG2, electroporation, 16-hour treatment
# How it was run: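 HepG2 cells, 50,000 per well, electroporated with modified oligonucleotide at various concentrations. APOE RNA quantified by RT-PCR with human primer probe set RTS3073, normalized to GAPDH. Values are percent APOE RNA relative to untreated control cells.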
# BJAB cells [6] = conditions: known behaviour in the assay; cited from earlier work
substance,measurement,setting,value
"Compound No. 1517891: comparator of WO 2022/066956; ACTTGGTGAATCTTTATTAA, sugar eeeeeddddddddddeeeee, linkages sooosssssssssssooss (MOE gapmer, mixed PS/PO linkages, chemistry not fully specified) [reference compound]",reduction of human APOE RNA in the cortex,"human APOE RNA [1]; APOE knock-in mouse model, 8 weeks post administration, assay of Example 11",44%
same,APOE RNA (% control) Cortex,"human APOE RNA [1]; cortex, single ICV bolus 300 μg, 8 weeks post treatment, normalized to mouse Ppia",56 % control
same,APOE RNA (% control) Spinal Cord,"human APOE RNA [1]; spinal cord, single ICV bolus 300 μg, 8 weeks post treatment, normalized to mouse Ppia",29 % control
same,APOE RNA (% control) Cortex,human APOE RNA [2]; cortex,49 % control
same,APOE RNA (% control) Spinal Cord,human APOE RNA [2]; spinal cord,65 % control
same,inflammatory response in human BJAB cells,BJAB cells [3],mildly inflammatory
same,APOE RNA (% control) Cortex,human APOE RNA [4]; cortex,93 % control and 97 % control
same,APOE RNA (% control) Spinal Cord,human APOE RNA [4]; spinal cord,92 % control and 71 % control
same,APOE RNA (% UTC),human APOE RNA [5]; 5 nM,82 % UTC
same,APOE RNA (% UTC),human APOE RNA [5]; 13 nM,75 % UTC
same,APOE RNA (% UTC),human APOE RNA [5]; 33 nM,81 % UTC
same,APOE RNA (% UTC),human APOE RNA [5]; 82 nM,83 % UTC
same,APOE RNA (% UTC),human APOE RNA [5]; 205 nM,65 % UTC
same,APOE RNA (% UTC),human APOE RNA [5]; 512 nM,48 % UTC
same,APOE RNA (% UTC),"human APOE RNA [5]; 1,280 nM",36 % UTC
same,APOE RNA (% UTC),"human APOE RNA [5]; 3,200 nM",36 % UTC
same,APOE RNA (% UTC),"human APOE RNA [5]; 8,000 nM",17 % UTC
same,IC50,human APOE RNA [5],550 nM
"Compound No. 735746: 3-10-3 cEt gapmer, TTCAAGGTGAACTGTT, internal standard (sugars from the 5' end k3 d10 k3, backbone and methylation of C not given here)",responder class for CCL22 release in the BJAB assay (internal standard),BJAB cells [6],moderate responder (mildly inflammatory)
"Compound No. 785674: kk-9-eeekk cEt gapmer with MOE modifications, TATTTCTGCTCCAGGT, internal standard (sugars from the 5' end k2 d9 e3 k2, backbone and methylation of C not given here)",responder class for CCL22 release in the BJAB assay (internal standard),BJAB cells [6],high responder (inflammatory)
"Compound No. 104838: 5-10-5 MOE gapmer, GCTGATTAGAGAGAGGTCCC, internal standard (negative control) (sugars from the 5' end e5 d10 e5, backbone and methylation of C not given here)",responder class for CCL22 release in the BJAB assay (internal standard),BJAB cells [6],non-responder (non-inflammatory)
"Compound No. 353512: 3-14-3 MOE gapmer, TCCCATTTCAGGAGACCTGG, internal standard (sugars from the 5' end e3 d14 e3, backbone and methylation of C not given here)",responder class for CCL22 release in the BJAB assay (internal standard),BJAB cells [6],high responder (inflammatory)
